Data reported in ChEMBL document CHEMBL1126756, “Studies on neurokinin antagonists. 3. Design and structure-activity relationships of new branched tripeptides N alpha-(substituted L-aspartyl, L-ornithyl, or L-lysyl)-N-methyl-N-(phenylmethyl)-L-phenylalaninamides as substance P antagonists” (J Med Chem, 1993).
Activity calls are given as the source filed them. No cut-off for these calls is given here.

What follows are compounds tested against Substance-P receptor (Cavia porcellus) (UniProt P30547) (assay: Tested for percent inhibition against [3H]SP (substance P) binding against NK1 receptor relative to compound 5 (100)). Details: concentration not given here.
Sequence of Substance-P receptor (Cavia porcellus) (P30547 whole entry): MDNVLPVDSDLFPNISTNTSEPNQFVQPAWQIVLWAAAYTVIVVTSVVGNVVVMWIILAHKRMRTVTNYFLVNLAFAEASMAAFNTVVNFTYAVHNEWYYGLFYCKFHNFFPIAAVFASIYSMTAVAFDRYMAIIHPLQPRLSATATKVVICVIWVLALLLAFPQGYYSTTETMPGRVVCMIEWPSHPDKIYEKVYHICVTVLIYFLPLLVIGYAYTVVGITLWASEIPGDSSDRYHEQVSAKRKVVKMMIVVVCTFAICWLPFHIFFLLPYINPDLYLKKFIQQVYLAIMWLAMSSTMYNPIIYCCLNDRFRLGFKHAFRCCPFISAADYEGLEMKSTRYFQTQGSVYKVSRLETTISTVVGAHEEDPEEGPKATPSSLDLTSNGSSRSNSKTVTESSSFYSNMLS

inhibition | SMILES
96% | CN(Cc1ccccc1)C(=O)[C@@H](Cc1ccccc1)NC(=O)C(CC(=O)NC(CCC(N)=O)C(=O)NC(C)(C)C)NC(=O)c1c[nH]c2ccccc12 (stereo partly drawn)
128% | CN(Cc1ccccc1)C(=O)[C@@H](Cc1ccccc1)NC(=O)C(CC(=O)NCC(N)=O)NC(=O)c1c[nH]c2ccccc12 (stereo partly drawn)
100% | CN(Cc1ccccc1)C(=O)[C@@H](Cc1ccccc1)NC(=O)C(CC(=O)NC(CO)C(N)=O)NC(=O)c1c[nH]c2ccccc12 (stereo partly drawn)
56% | CN(Cc1ccccc1)C(=O)[C@@H](Cc1ccccc1)NC(=O)C(CC(=O)NC(CCC(N)=O)C(N)=O)NC(=O)c1c[nH]c2ccccc12 (stereo partly drawn)

What follows are compounds tested against Substance-P receptor (Cavia porcellus) (UniProt P30547) (assay: Tested for percent inhibition against [3H]SP (substance P) binding against NK1 receptor relative to compound 7 at 100 ng/mL; No inhibition). Details: not given.

inhibition | SMILES
inactive | CC(=O)NC(CCCCNC(=O)C(NC(C)=O)C(C)O)C(=O)N[C@H](Cc1ccccc1)C(=O)N(C)Cc1ccccc1 (stereo partly drawn)
inactive | CC(=O)NC(C(=O)NCCCCC(NC(=O)OC(C)(C)C)C(=O)N[C@H](Cc1ccccc1)C(=O)N(C)Cc1ccccc1)C(C)O (stereo partly drawn)
inactive | CC(=O)N[C@H](C(=O)NCCCC[C@@H](NC(=O)c1c[nH]c2ccccc12)C(=O)N[C@H](Cc1ccccc1)C(=O)N(C)Cc1ccccc1)[C@@H](C)O
inactive | CC(=O)NC(C(=O)NCCCCC(NC(=O)c1ccccc1)C(=O)N[C@H](Cc1ccccc1)C(=O)N(C)Cc1ccccc1)C(C)O (stereo partly drawn)
inactive | CC(=O)NC(C(=O)NCCCCC(N)C(=O)N[C@H](Cc1ccccc1)C(=O)N(C)Cc1ccccc1)C(C)O (stereo partly drawn)

The compounds below were run against Substance-P receptor (Cavia porcellus) (UniProt P30547) (assay: Tested for percent inhibition against [3H]-SP (substance P) binding against NK1 receptor relative to compound 5 at 100 ng/mL; No inhibition). Details: not given.

inhibition | SMILES
inactive | CC(O)C(NC(=O)CC(NC(=O)OC(C)(C)C)C(=O)N[C@H](Cc1ccccc1)C(=O)N(C)Cc1ccccc1)C(N)=O (stereo partly drawn)
inactive | CC(O)C(NC(=O)CC(N)C(=O)N[C@H](Cc1ccccc1)C(=O)N(C)Cc1ccccc1)C(N)=O (stereo partly drawn)

Each compound was assayed against Substance-P receptor (Cavia porcellus) (UniProt P30547) (assay: Percent inhibition of [3H]-SP (substance P) binding to NK1 receptor relative to compound 7 (100)). Details: concentration not given here.
Design: concentration or dose not given beside the values

inhibition | SMILES
22% | CN(Cc1ccccc1)C(=O)[C@@H](Cc1ccccc1)NC(=O)C(CCCCNC(=O)OCc1ccccc1)NC(=O)c1cc2ccccc2[nH]1 (stereo partly drawn)
91% | CN(Cc1ccccc1)C(=O)[C@@H](Cc1ccccc1)NC(=O)C(CCCCN)NC(=O)c1c[nH]c2ccccc12 (stereo partly drawn)
53% | CN(Cc1ccccc1)C(=O)[C@@H](Cc1ccccc1)NC(=O)C(CCCCNC(=O)N1CCOCC1)NC(=O)c1c[nH]c2ccccc12 (stereo partly drawn)
87% | CC(=O)NCCCCC(NC(=O)c1c[nH]c2ccccc12)C(=O)N[C@H](Cc1ccccc1)C(=O)N(C)Cc1ccccc1 (stereo partly drawn)
144% | CN(C)C(=O)NCCCCC(NC(=O)c1c[nH]c2ccccc12)C(=O)N[C@H](Cc1ccccc1)C(=O)N(C)Cc1ccccc1 (stereo partly drawn)
82% | CC(=O)NCCC(=O)NCCCCC(NC(=O)c1c[nH]c2ccccc12)C(=O)N[C@H](Cc1ccccc1)C(=O)N(C)Cc1ccccc1 (stereo partly drawn)
98% | CC(=O)NCC(=O)NCCCCC(NC(=O)c1c[nH]c2ccccc12)C(=O)N[C@H](Cc1ccccc1)C(=O)N(C)Cc1ccccc1 (stereo partly drawn)
136% | CC(=O)NC(CO)C(=O)NCCCCC(NC(=O)c1c[nH]c2ccccc12)C(=O)N[C@H](Cc1ccccc1)C(=O)N(C)Cc1ccccc1 (stereo partly drawn)
98% | CC(O)C(NC(=O)OC(C)(C)C)C(=O)NCCCCC(NC(=O)c1c[nH]c2ccccc12)C(=O)N[C@H](Cc1ccccc1)C(=O)N(C)Cc1ccccc1 (stereo partly drawn)
44% | CN(Cc1ccccc1)C(=O)[C@@H](Cc1ccccc1)NC(=O)C(CCCCNC(=O)C(C)(C)C)NC(=O)c1c[nH]c2ccccc12 (stereo partly drawn)

What follows are compounds tested against Substance-P receptor (Cavia porcellus) (UniProt P30547) (assay: Tested for percent inhibition against [3H]-SP (substance P) binding against NK1 receptor). Details: concentration not given here.

inhibition | SMILES
100% | CC(=O)N[C@H](C(=O)NCCCC[C@H](NC(=O)c1c[nH]c2ccccc12)C(=O)N[C@H](Cc1ccccc1)C(=O)N(C)Cc1ccccc1)[C@@H](C)O

The compounds below were run against Substance-P receptor (Cavia porcellus) (UniProt P30547) (assay: Tested for percent inhibition against [3H]SP (substance P) binding against NK1 receptor relative to compound). Details: concentration not given here.

inhibition | SMILES
100% | C[C@@H](O)C(NC(=O)CC(NC(=O)c1c[nH]c2ccccc12)C(=O)N[C@H](Cc1ccccc1)C(=O)N(C)Cc1ccccc1)C(N)=O (stereo partly drawn)

Each compound was assayed against Substance-P receptor (Cavia porcellus, UniProt P30547) (assay: Tested for inhibition against [3H]-SP (substance P) (1 nM) binding to NK1 receptor in guinea pig lung membranes). Details: not given.
Assay type: cell membranes, Membrane

Sequence of Substance-P receptor (P30547 whole entry): as above

IC50 | SMILES
54 nM | C[C@@H](O)C(NC(=O)CC(NC(=O)c1cc2ccccc2[nH]1)C(=O)N[C@H](Cc1ccccc1)C(=O)N(C)Cc1ccccc1)C(N)=O (stereo partly drawn)
19 nM | CC(=O)NC(C(=O)NCCCCC(NC(=O)c1cc2ccccc2[nH]1)C(=O)N[C@H](Cc1ccccc1)C(=O)N(C)Cc1ccccc1)[C@@H](C)O (stereo partly drawn)
13 nM | CC(=O)N[C@H](C(=O)NCCCC[C@H](NC(=O)c1c[nH]c2ccccc12)C(=O)N[C@H](Cc1ccccc1)C(=O)N(C)Cc1ccccc1)[C@@H](C)O
23 nM | C[C@@H](O)C(NC(=O)CC(NC(=O)c1c[nH]c2ccccc12)C(=O)N[C@H](Cc1ccccc1)C(=O)N(C)Cc1ccccc1)C(N)=O (stereo partly drawn)
21 nM | CC(=O)NC(C(=O)NCCCC(NC(=O)c1c[nH]c2ccccc12)C(=O)N[C@H](Cc1ccccc1)C(=O)N(C)Cc1ccccc1)[C@@H](C)O (stereo partly drawn)
